Experimental findings from patent publication US20060074243A1, “Hydroxamic acid and amide compounds and their use as protease inhibitors” (Pharmacia Corporation, priority 2002, published 2006) are described below.

Assay [1] deals with T1, Human recombinant MMP-14 (Homo sapiens, UniProt P50281).
T1 construct: The catalytic domain enzyme was expressed in E. coli inclusion bodies, solubilized in urea; made in house
In words: In vitro MMP inhibition analysis (fluorogenic peptide substrate cleavage), Ki. Format: biochemical. The settings on record: Table 2. As for the experimental part:
(§1) Several compounds and salts were analyzed in an in vitro assay to determine their ability to inhibit the MMP cleavage of peptide substrates. Inhibition constant (Ki) were calculated from the assayed compound-MMP interactions.
(§2) Human recombinant MMP-1, MMP-2, MMP-9, MMP-13, and MMP-14 were used in this assay. All enzymes were prepared in Assignee's laboratories following usual laboratory procedures. Protocols for the preparation and use of these enzymes are available in the scientific literature. See, e.g., Enzyme Nomenclature (Academic Press, San Diego, Calif., 1992) (and the citations therein). See also, Frije et al., J. Biol. Chem., 26(24), 16766-73 (1994).
The MMP-14 full length cDNA was provided by Dr. Gregory Goldberg of Washington University (St. Louis, Mo.). The catalytic domain enzyme was expressed in E. coli inclusion bodies, solubilized in urea, purified on a preparative […] reverse phase HPLC column, and then refolded in the presence of zinc acetate and purified for use.
(§3) All MMPs were activated using 4-aminophenylmercuric acetate (“APMA”, Sigma Chemical, St. Louis, Mo.) or trypsin. MMP-9 also was activated using human recombinant MMP-3 (purified in Assignee's laboratory following standard cloning and purification techniques).
(§4) The following fluorogenic, methoxycoumarin-containing polypeptide substrate (I) was used in the MMP inhibition assays: MCA-ArgProLeuGlyLeuDpaAlaArgGluArgNH2 (I) “MCA” is 7-methoxycoumarin-4-yl acetyl. Substrate (I) was prepared Assignee's laboratory. In the absence of MMP inhibitory activity, the substrate is cleaved at the Gly-Leu peptide bond. This cleavage separates the highly fluorogenic peptide from the 2,4-dinitrophenyl quencher, thus resulting in increase of fluorescent intensity.
(§5) The stock solutions of the assayed compounds and salts were prepared in […] (DMSO). These stock solutions were diluted in Buffer A (100 mM Tris-HCl, 100 mM NaCl, 10 mM CaCl2, 0.05% polyoxyethylene 23 lauryl ether, pH 7.5) to obtain solutions with different compound concentrations, i.e., assay solutions with different concentrations of the assayed […] compound. The experiment controls contained the same amount of Buffer A/DMSO as the assayed sample, but contained none of the tested compound or salt.
(§6) The assays from which the Ki determinations were made were performed as follows. The assayed compound samples were incubated in separate wells of untreated white polystyrene plates (Nunc Nalgene International, Rochester, N.Y.), and analyzed on a Tecan SpectraFlour Plus plate reader. The excitation wavelength was 330 nm, and the emission wavelength—420 nm. All samples (assayed compounds and controls) were incubated in separate plate wells at room temperature for 1 hr in the presence of 4 μM of MMP substrate (I). In the absence of MMP inhibitory activity, substrate (I) was cleaved at the Gly-Leu bond resulting in an increase of relative fluorescence. Inhibition was observed as a reduced rate of this increase in relative fluorescence. […] This protocol is a modification of method by Knight et al., FEBS Lett., 296(3), 263-266 (1992). Apparent inhibitory constants were determined by non-linear regression of reaction velocity as a function of inhibitor and enzyme concentration using Morrison's equation, as described by Kuzmic, Anal. Biochem. 286, 45-50 (2000). Modifications were made in the non-linear regression method to allow a common control reaction rate and effective enzyme concentration to be shared between all dose-response relationships on a given assay plate. Since the substrate concentration was chosen to be at or below the Km, the apparent Ki's from this analysis were reported as Ki's without correction for the influence of substrate.
The above protocols were used to determine Ki constants for the compounds in Examples 2-35 above. All Ki values in Table 1 are given in nM units.

Assay [2] deals with T2, Human recombinant MMP-13 (Homo sapiens, UniProt P45452).
T2 construct: made in house; host or cells: baculovirus / insect cells
The assay is described as above. The format is biochemical. The settings on record: Table 2. As for the experimental part: as §1, §2
The MMP-13 was obtained as a proenzyme from a full-length cDNA clone using baculovirus, as described by V. A. Luckow, “Insect Cell Expression Technology,” Protein Engineering: Principles and Practice, pp. 183-218 (edited by J. L. Cleland et al., Wiley-Liss, Inc., 1996). The expressed proenzyme was first purified over a heparin agarose column, and then over a chelating zinc chloride column. The proenzyme was then activated by APMA for use in the assay. Further details on baculovirus expression systems may be found in, for example, Luckow et al., J. Virol., 67, 4566-79 (1993). See also, O'Reilly et al, Baculovirus Expression Vectors: A Laboratory Manual (W.H. Freeman and Co., New York, N.Y., 1992). See also, King et al., The Baculovirus Expression System: A Laboratory Guide (Chapman & Hall, London, England, 1992).
as §3, §4, §5
as §6, with “Modifications were made in the non-linear regression method to allow a common control reaction rate and effective enzyme concentration to be shared between all dose-response relationships on a given assay plate. Since the substrate concentration was chosen to be at or below the Km, the apparent Ki's from this analysis were reported as Ki's without correction for the influence of substrate.” left out

The structures appear in SMILES notation.

For `CCCCOc1cnc(-c2ccc(S(=O)(=O)C3(C(=O)NO)CCOCC3)cc2)cn1` [Example 73], the inhibitory constant (Ki) in assay [1] was determined as 159 nM; in assay [2] it was 0.028 nM.

Consider `O=C(NO)C1(S(=O)(=O)c2ccc(-c3ccc(OCCCC(F)(F)F)cc3)cc2)CCOCC1` [Example 74], for which the Ki in assay [1] came to 585 nM; in assay [2], 0.102 nM.

Turning to `CCCCCc1ccc(-c2ccc(S(=O)(=O)C3(C(=O)NO)CCOCC3)cc2)cc1` [Example 75], the Ki worked out at 621 nM in assay [1] and 0.299 nM in assay [2].

Turning to `CC(=O)Nc1cnc(-c2ccc(S(=O)(=O)C3(C(=O)NO)CCOCC3)cc2)cn1` [Example 76], the inhibition constant (Ki) in assay [1] came out at 3480 nM; in assay [2], 31.7 nM.

Regarding `CCN1CCC(C(=O)NO)(S(=O)(=O)c2ccc(-c3ccc(OCCCCO)cc3)cc2)CC1` [Example 118], the Ki came to 741 nM in assay [1] and 0.012 nM in assay [2].

Turning to `CCCCOc1ccc(-c2ccc(S(=O)(=O)C3(C(=O)NO)CCN(CCOC)CC3)cc2)cc1` [Example 119], the inhibition constant (Ki) is 171 nM in assay [1] and 0.018 nM in assay [2].

As for `CCCCOc1ccc(-c2ccc(S(=O)(=O)C3(C(=O)NO)CCN(C4CC4)CC3)cc2)cc1` [Example 120], the Ki came to 311 nM in assay [1] and 0.082 nM in assay [2].

As to `O=C(NO)C1(S(=O)(=O)c2ccc(-c3ncccn3)cc2)CCOCC1` [Example 121], the Ki was determined as 1880 nM in assay [1] and 4.86 nM in assay [2].

As for `CCc1cnc(-c2ccc(S(=O)(=O)C3(C(=O)NO)CCOCC3)cc2)nc1` [Example 122], the inhibition constant Ki in assay [1] is 315 nM; in assay [2], 1.56 nM.

With `CCc1csc(Nc2ccc(-c3ccc(S(=O)(=O)C4(C(=O)NO)CCOCC4)cc3)cc2)n1` [Example 124], the Ki came to 6230 nM in assay [1] and 3.3 nM in assay [2].

For the compound `O=C(NO)C1(S(=O)(=O)c2ccc(-c3ccc(-n4cncn4)cc3)cc2)CCOCC1` [Example 126], the results for the inhibition constant Ki in assay [1] and in assay [2] were 905 nM and 0.048 nM, respectively.

Consider `O=C(NO)C1(S(=O)(=O)c2ccc(-c3ccc(-n4ccnc4)cc3)cc2)CCOCC1` [Example 127], for which the values for the Ki in assay [1] and in assay [2] were 414 nM and 0.03 nM, respectively.

As for `O=C(NO)C1(S(=O)(=O)c2ccc(-c3cnc(NCC4CC4)cn3)cc2)CCOCC1` [Example 128], the values for the inhibitory constant (Ki) in assay [1] and in assay [2] were above 2500 nM and 3.4 nM, respectively.

With `O=C(NO)C1(S(=O)(=O)c2ccc(-c3ccc(CCC4CCCCC4)cn3)cc2)CCOCC1` [Example 129], the inhibition constant Ki came to 745 nM in assay [1] and 0.383 nM in assay [2].

On to `CC(C)(C)CCNc1cnc(-c2ccc(S(=O)(=O)C3(C(=O)NO)CCOCC3)cc2)cn1` [Example 130], for which the inhibition constant Ki is above 1250 nM in assay [1] and 1.27 nM in assay [2].

On to `O=C(NO)C1(S(=O)(=O)c2ccc(-c3cnc(N4CCCCC4)cn3)cc2)CCOCC1` [Example 131], for which the results for the inhibitory constant (Ki) in assay [1] and in assay [2] were 6240 nM and 2.04 nM, respectively.

Take `O=C(NO)C1(S(=O)(=O)c2ccc(-c3cscc3-c3ccc(F)cc3)cc2)CCOCC1` [Example 132]: the Ki in assay [1] was determined as 3170 nM; in assay [2], 71 nM.

Regarding `O=C(NO)C1(S(=O)(=O)c2ccc(-c3ccc(CCC(F)(C(F)(F)F)C(F)(F)F)cn3)cc2)CCOCC1` [Example 133], the Ki in assay [1] was found to be 4150 nM; in assay [2], 2.06 nM.

On to `O=C(NO)C1(S(=O)(=O)c2ccc(-c3noc(-c4ccc(F)cc4)n3)cc2)CCOCC1` [Example 134], for which the Ki in assay [1] stood at 67.1 nM; in assay [2], 1.76 nM.

For `CCN1CCC(C(=O)NO)(S(=O)(=O)c2ccc(-c3ccc(Oc4ccccc4)cc3)cc2)CC1` [Example 135], the inhibition constant (Ki) in assay [1] is 1010 nM; in assay [2], 0.742 nM.

Regarding `CCN1CCC(C(=O)NO)(S(=O)(=O)c2ccc(-c3ccc(-c4ccncc4)cc3)cc2)CC1` [Example 136], the Ki in assay [1] is 308 nM; in assay [2], 0.021 nM.

For `O=C(NO)C1(S(=O)(=O)c2ccc(-c3ncc(CCC(F)(F)C(F)(F)F)cn3)cc2)CCOCC1` [Example 137], the inhibitory constant (Ki) in assay [1] is 2870 nM; in assay [2], 0.17 nM.

Regarding `O=C(NO)C1(S(=O)(=O)c2ccc(-c3cnc(N4CCCC4)cn3)cc2)CCOCC1` [Example 138], the inhibition constant Ki is 1110 nM in assay [1] and 0.571 nM in assay [2].

On to `CCCCc1ccc(-c2ccc(S(=O)(=O)C3(C(=O)NO)CCN(CC)CC3)cc2)cn1` [Example 139], for which the inhibitory constant (Ki) is above 10000 nM in assay [1] and 5.22 nM in assay [2].

For the compound `CCCCc1ccc(-c2ccc(S(=O)(=O)C3(C(=O)NO)CCN(CC)CC3)cc2)nc1` [Example 140], the Ki in assay [1] stood at 604 nM; in assay [2], 0.058 nM.

Regarding `O=C(NO)C1(S(=O)(=O)c2ccc(-c3ccc(-c4ccncc4)cc3)cc2)CCOCC1` [Example 141], the values for the inhibition constant (Ki) in assay [1] and in assay [2] were 79.4 nM and 0.012 nM, respectively.

On to `O=C(NO)C1(S(=O)(=O)c2ccc(-c3cnc(CCC(F)(F)C(F)(F)F)nc3)cc2)CCOCC1` [Example 142], for which the Ki in assay [1] is above 10000 nM; in assay [2], 22.5 nM.

In the case of `O=C(NO)C1(S(=O)(=O)c2ccc(-c3ccc(OCCCC(F)(F)F)cn3)cc2)CCOCC1` [Example 144], the figures for the Ki in assay [1] and in assay [2] were 187 nM and 0.007 nM, respectively.

`O=C(NO)C1(S(=O)(=O)c2ccc(-c3ccc(-c4ccc(OC(F)(F)F)cc4)cn3)cc2)CCN(C2CC2)CC1` [Example 145]: the values for the inhibitory constant (Ki) in assay [1] and in assay [2] were 560 nM and 0.26 nM, respectively.

Turning to `CN1CCC(C(=O)NO)(S(=O)(=O)c2ccc(-c3ccc(OC(F)(F)C(F)F)cc3)cc2)CC1` [Example 146], the inhibitory constant (Ki) in assay [1] amounted to 1050 nM; in assay [2], 0.15 nM.

Consider `CCN1CCC(C(=O)NO)(S(=O)(=O)c2ccc(-c3noc(-c4ccc(F)cc4)n3)cc2)CC1` [Example 147], for which the Ki in assay [1] was 139 nM; in assay [2] it was 2.59 nM.

`CCN1CCC(C(=O)NO)(S(=O)(=O)c2ccc(-c3noc(-c4ccncc4)n3)cc2)CC1` [Example 148]: the Ki worked out at 1020 nM in assay [1] and 5.7 nM in assay [2].

Consider `CCN1CCC(C(=O)NO)(S(=O)(=O)c2ccc(-c3noc(-c4ccc(C(F)(F)F)cc4)n3)cc2)CC1` [Example 149], for which the figures for the Ki in assay [1] and in assay [2] were 117 nM and 0.45 nM, respectively.

Consider `O=C(NO)C1(S(=O)(=O)c2ccc(-c3ccc(-c4ccccc4F)cn3)cc2)CCN(C2CC2)CC1` [Example 150], for which the Ki in assay [1] was determined as 307 nM; in assay [2], 0.12 nM.
